Source: patent US20240124483A1, “Methods for the Treatment of Fibrotic Disease” (SHY Therapeutics, LLC, priority 2021, published 2024)
pIC50: −log10 of the molar value. Where two headings read alike, the source gives them in different places.

Assays:
MAPK p38 = MAPK p38 Activation Assay in Panc-1 (western blot); assay type: cell-based, Human; design: key: Y = yes; N = No; conditions: at 10 μM
Procedure: (§1) Cell lines: Human tumor-derived pancreatic cancer cell line Panc-1 and mouse muscle myoblast C2C12 were purchased from American Type Culture Collection and grown in complete DMEM-High Glucose, supplemented with penicillin (100 U/mL), streptomycin (100 μg/mL), and 10% heat-inactivated FBS at 37° C. in a humidified incubator with 5% CO2.
(§2) Method: Cells were plated at 350000 cells/well density in a 12-well plate, allowed 3 hours to adhere to the plate, then starved in the appropriate medium in the presence of 0.5% FBS overnight. The small molecules to be tested were added to the cells in the final concentration of 10 μM in the presence of 0.3% DMSO for 3 hours incubation at 37° C. For IC50 value determination, serial dilutions of compounds were added to cells under the same conditions. Next, Panc-1 cells were stimulated with 10 ng/ml TGF-b1 for 1 hour, and C2C12 cells were stimulated with 10 ng/ml TGF-b1 for 20 minutes (recombinant human TGF-b1, R&D Systems). After stimulation cells were lysed with lysis buffer containing 1% Triton X-100, EDTA, and Halt™ Protease & Phosphatase Inhibitor Cocktail (Thermo Scientific). Protein concentration was assessed by BCA protein assay (Thermo Scientific). Phosphorylation level of MAPK p38 was determined by western blot.
(§3) Western blot protocol: Equal amounts of protein (15-50 μg) were separated by SDS-PAGE and transferred to nitrocellulose membranes (Invitrogen by Thermo Fisher Scientific). The membrane was stained with Ponceau S Stain (Boston BioProducts) to verify uniform protein loading. Membranes were blocked with 10% milk and phosphorylation levels of Smad2/Smad3 were assessed by incubating overnight at 4° C. with the following antibody: Phospho-p38 MAPK (Thr180/Tyr182), from Cell Signaling Technology. Then the membranes were incubated with HRP-conjugated secondary antibody (Jackson Immunoresearch, West Grove, PA). Bands were incubated in Amersham ECL Prime Western Blotting Detection Reagent (GE Healthcare) and visualized using the ChemiDoc MP imaging system (Bio-Rad).

Smad2/3 phosphorylation = experiment: Phospho-Smad2/3 Inhibition Assay in Panc-1 (western blot); assay type: cell-based; conditions: Homo sapiens; for inhibition at 10 µM: 3 hours, PANC-1 stimulated with 10 ng/ml TGF-b1 for 1 hour, read-out: % inh of Smad2/3 phosphorylation in PANC-1
Procedure: as §1
as §2, with “Smad2/Smad3” for “MAPK p38”
as §3, with “antibodies: Phospho-Smad2 (Ser465/467) and Phosph-Smad3 (Ser423/425), both” for “antibody: Phospho-p38 MAPK (Thr180/Tyr182),”

Rac-1 = Rac-1 (Homo sapiens (Human), UniProt P63000); experiment: Ras GTP Binding Domain Inhibition Assay, Rac-1
Procedure: (§4) A Ras Superfamily Activity Assay (as disclosed in International Application No. PCT/US2018/038613, filed Jun. 20, 2018, which is incorporated by reference in its entirety) was used as a specific assay to evaluate compounds against the following for the following Ras Superfamily proteins: KRas wild type, KRas Q61H mutant, KRas G12C mutant, KRas G12D mutant, Rac-1, and Rho-A.
(§5) Buffer-I: • 25 mM Tris-HCl, pH 7.4 • 27 mM KCl • 137 mM NaCl • 1 mM MgCl2 • 1 mM DTT
(§6) Buffer-II: • 50 mM Tris-HCl, pH 7.0 • 1 mM MgCl2 • 1 mM DTT
(§7) The small GTPases proteins: KRas wild type. KRas Q61H mutant, KRas G12C mutant, KRas G12D mutants, Rac-1, and Rho-A were expressed as His-tagged proteins. In addition, the Guanosine nucleotide Exchange Factor (GEF) Sos protein (residues 556-1049) was expressed as a His-tagged protein. In cells, the guanine nucleotide exchange factor Sos protein promotes activation of Ras proteins by stimulating an exchange of GDP for GTP. The inclusion of Sos to the Ras GTP binding domain inhibition assay may be considered as an alternative representation of physiological cellular conditions for evaluating the inhibitory activity of some of the tested small molecules.
(§8) For the assay, all purified small GTPases proteins were diluted in Buffer-I or Buffer-II to a final concentration of 10-30 μg/mL. 200 μL of each diluted protein was added to a nickel-coated 96-well plate and incubated overnight at 4° C. Then the protein solution was discarded and 200 μL of Buffer-I or Buffer-II was added to each well in the presence of 1% DMSO. Compounds to be tested were added to the protein-coated wells at final concentration of 20 μM, and incubated for 3 hours at room temperature with and without 10-30 μg/mL of Sos added to the final hour of the incubation. When performing IC50 measurements a serial dilution of all tested concentrations was added. Then Cy3-GTP or Cy5-GTP was added to each well to a final concentration of 100 nM. The labeled GTP was incubated for 45 minutes at room temperature. Following GTP incubation, wells were washed 3× in Buffer-I or Buffer-II and 200 μL of Buffer-I or Buffer-II was added to each well. Following washes, the amount of bound labeled-GTP was measured using a SpectraMax M3 (Molecular Devices).

KRas Q61H mutant = KRas Q61H mutant (Homo sapiens (Human), UniProt P01116, Q61H); experiment: Ras GTP Binding Domain Inhibition Assay, KRas Q61H mutant
KRas Q61H mutant, sequence (P01116 other isoform, or with tags, fused parts or gaps Q61H): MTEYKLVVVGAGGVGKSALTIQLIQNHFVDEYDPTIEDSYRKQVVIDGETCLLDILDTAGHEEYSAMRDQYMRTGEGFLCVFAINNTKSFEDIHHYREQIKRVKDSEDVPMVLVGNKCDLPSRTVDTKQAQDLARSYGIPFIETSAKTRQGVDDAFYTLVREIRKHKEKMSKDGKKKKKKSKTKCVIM
Procedure: as §4, §5, §6, §7, §8

MiaPaca2 = MiaPaca2 proliferation; assay type: cell-based; conditions: Homo sapiens, MIA PaCa-2; for inhibition at 10 µM: read-out: % inh of proliferation in MiaPaca2
[1] = without SOS, read-out: Rac-1: % inh.
[2] = + SOS, read-out: KRas Q61H mutant + SOS: % inh.
[3] = without SOS, read-out: KRas Q61H mutant: % inh.
[4] = + SOS, read-out: Rac-1 + SOS: % inh.

| SMILES | inhibition at 20 µM (Rac-1; [1]) [%] | inhibition at 20 µM (KRas Q61H mutant; [2]) [%] | inhibition at 20 µM (KRas Q61H mutant; [3]) [%] | pIC50 (MiaPaca2) | pIC50 (KRas Q61H mutant; + SOS) | Activation of MAPK p38 in PANC-1 (MAPK p38) | inhibition at 10 µM (Smad2/3 phosphorylation) [%] | inhibition at 10 µM (MiaPaca2) [%] | pIC50 (Smad2/3 phosphorylation; PANC-1, TGF-b1 stimulated) | inhibition at 20 µM (Rac-1; [4]) [%] |
| --- | --- | --- | --- | --- | --- | --- | --- | --- | --- | --- |
| Cc1c(-c2ccn(C(C)C)n2)sc2nc(-c3nccn3C)nc(NCC3CN(C)CCO3)c12 (racemic) [Compound 25, rac-6-(1-Isopropyl-1H-pyrazol-3-yl)-5-methyl-2-(1-methyl-1H-imidazol-2-yl)-N-((4-methylmorpholin-2-yl)methyl)thieno[2,3-d]pyrimidin-4-amine] | 76 to 100 | 76 to 100 | 76 to 100 | 5.00 to 5.30 | – | Y | 0 | 46 to 75 | – | – |
| Cc1c(-c2ccn(C(C)C)n2)sc2nc(-c3nccn3C)nc(NCC3CCCO3)c12 (racemic) [Compound 26, rac-6-(1-Isopropyl-1H-pyrazol-3-yl)-5-methyl-2-(1-methyl-1H-imidazol-2-yl)-N-((tetrahydrofuran-2-yl)methyl)thieno[2,3-d]pyrimidin-4-amine] | 46 to 75 | 76 to 100 | 76 to 100 | < 5.00 | – | Y | 0 | 46 to 75 | – | – |
| COCC1(OC)CCN(c2nc(-c3nccn3C)nc3sc(-c4ccn(C(C)C)n4)c(C)c23)C1 (racemic) [Compound 27, rac-6-(1-Isopropyl-1H-pyrazol-3-yl)-4-(3-methoxy-3-(methoxymethyl)pyrrolidin-1-yl)-5-methyl-2-(1-methyl-1H-imidazol-2-yl)thieno[2,3-d]pyrimidine] | 1 to 25 | 76 to 100 | 46 to 75 | 5.00 to 5.30 | – | Y | 0 | 76 to 100 | – | – |
| COCCNc1nc(-c2nccn2C)nc2sc(-c3cccc(OC)c3Cl)c(-c3ccccc3)c12 [Compound 9, 6-(2-Chloro-3-methoxyphenyl)-N-(2-methoxyethyl)-2-(1-methyl-1H-imidazol-2-yl)-5-phenylthieno[2,3-d]pyrimidin-4-amine] | 46 to 75 | 76 to 100 | 46 to 75 | – | – | Y | 76 to 100 | – | 5.30 to 6.00 | 46 to 75 |
| COCCn1ccnc1-c1nc(N[C@H]2C[C@@H](OC)C2)c2c(-c3ccccc3)c(-c3ccn(C)n3)sc2n1 [Compound 13, N-((1s,3s)-3-methoxycyclobutyl)-2-(1-(2-methoxyethyl)-1H-imidazol-2-yl)-6-(1-methyl-1H-pyrazol-3-yl)-5-phenylthieno[2,3-d]pyrimidin-4-amine] | 76 to 100 | 76 to 100 | 76 to 100 | – | 5.30 to 6.00 | N | 46 to 75 | – | – | 76 to 100 |

Continued, in another order:

| inhibition at 20 µM (Rac-1; [1]) [%] | inhibition at 20 µM (KRas Q61H mutant; [2]) [%] | inhibition at 20 µM (KRas Q61H mutant; [3]) [%] | pIC50 (MiaPaca2) | pIC50 (KRas Q61H mutant; + SOS) | SMILES | Activation of MAPK p38 in PANC-1 (MAPK p38) | inhibition at 10 µM (Smad2/3 phosphorylation) [%] | inhibition at 10 µM (MiaPaca2) [%] | pIC50 (Smad2/3 phosphorylation; PANC-1, TGF-b1 stimulated) | inhibition at 20 µM (Rac-1; [4]) [%] |
| --- | --- | --- | --- | --- | --- | --- | --- | --- | --- | --- |
| 46 to 75 | 76 to 100 | 26 to 45 | 5.00 to 5.30 | – | COC1CCCN(c2nc(-c3nccn3C)nc3sc(-c4ccn(C(C)C)n4)c(C)c23)C1 (racemic) [Compound 14, rac-6-(1-Isopropyl-1H-pyrazol-3-yl)-4-(3-methoxypiperidin-1-yl)-5-methyl-2-(1-methyl-1H-imidazol-2-yl)thieno[2,3-d]pyrimidine] | Y | 46 to 75 | 76 to 100 | – | – |
| 76 to 100 | 76 to 100 | 76 to 100 | 5.00 to 5.30 | – | COCC1CN(c2nc(-c3nccn3C)nc3sc(-c4ccn(C(C)C)n4)c(C)c23)CCO1 (racemic) [Compound 15, 4-(6-(1-Isopropyl-1H-pyrazol-3-yl)-5-methyl-2-(1-methyl-1H-imidazol-2-yl)thieno[2,3-d]pyrimidin-4-yl)-2-(methoxymethyl)morpholine] | Y | 26 to 45 | 46 to 75 | – | – |
| 46 to 75 | 76 to 100 | 46 to 75 | 5.30 to 6.00 | – | COCCO[C@H]1CC[C@@H](Nc2nc(-c3nccn3C)nc3sc(-c4ccn(C(C)C)n4)c(C)c23)C1 (racemic) [Compound 20, rac-6-(1-Isopropyl-1H-pyrazol-3-yl)-N-((1R,3S)-3-(2-methoxyethoxy)cyclopentyl)-5-methyl-2-(1-methyl-1H-imidazol-2-yl)thieno[2,3-d]pyrimidin-4-amine] | Y | 1 to 25 | 76 to 100 | – | – |
| 76 to 100 | 76 to 100 | 46 to 75 | 5.00 to 5.30 | – | Cc1c(-c2ccn(C(C)C)n2)sc2nc(-c3nccn3C)nc(NCC3COCCN3C)c12 (racemic) [Compound 24, rac-6-(1-Isopropyl-1H-pyrazol-3-yl)-5-methyl-2-(1-methyl-1H-imidazol-2-yl)-N-((4-methylmorpholin-3-yl)methyl)thieno[2,3-d]pyrimidin-4-amine] | Y | 0 | 76 to 100 | – | – |
